Results: US20040043394A1, “Gene expression element specific for Ah receptor ligands and heterologous gene expression systems dependent on the element” (priority 2002, published 2004)

What was measured:
[1] = test system: AhR-GUS and AhRV-GUS transformed tobacco plant (mouse AhR/AhRV, Arnt, XRE-GUS); test: GUS activity in transformed tobacco plants (AhR-GUS / AhRV-GUS) treated with AhR-ligand; type: in vivo, Nicotiana tabacum cv. Sumsun N N; conditions: for enhancement of the GUS activity in the presence of AhR-ligands: medium with 25 μM 20-MC, 25 μM β-NF, 50 μM indigo, stem and leaf soluble protein, FIG. 10
Source text: A AhR-ligand specific gene expression system for plants was constructed. It was constructed by introducing a AhR, Arnt and XRE to a plant. From a liver cDNA library prepared from C57BL/6 mouse, an AhR cDNA (Schmidt, J. V., et al, 1993) and an Arnt cDNA (Reisz-Porszasz, S., et al, 1994) were cloned. In order to constitutively express both cDNAs in a plant, there were constructed two kinds of plant expression plasmids pSKA2G and pSKAvAtG. The plasmids comprising a tandemly aligned XRE sequence, a transcription factor expression unit (i.e. the first transcription structure) inserted in an expression unit composed of a cauliflower mosaic virus 35S promoter (CaMV35S-P) and a nopaline synthase terminator (Nos-T), and a reporter unit composed of a reporter gene and Nos-T (structures are shown in FIG. 7). The PSKAvAtG contains a chimera AhR (AhRV) in which transcriptional activation domain of AhR is substituted with VP16 transcriptional activation domain (AhRV gene). Using Agrobacterium with each plasmid introduced therein, a tobacco plant (Nicotiana tabacum cv. Sumsun N N) was transformed by a leaf disc method.
The plants which had been introduced with each plant expression plasmid were selected two times by antibiotic kanamycin. Each genomic DNA was extracted from re-differentiated individuals after kanamycin selection, and genomic PCR analysis was performed using primers specific for each of AhR or AhRV, Arnt and GUS.
The plant transformed with either pSKA2G or pSKAvAtG is designated as AhR-GUS or AhRV-GUS plants, respectively. Axillary buds were removed from all transformed plants. […] Then the soluble protein fractions were extracted from stem and leaf parts of the grown buds, and the GUS activities of the fractions were measured. The medium were added with 0.01% Tween 20 and an AhR-ligand (20-MC) or a solvent DMSO solution to a final concentration of 0.1%. Similarly, a axillary bud was cultured for 2 weeks on an MS medium in the presence of various concentrations (8 grades) of AhR-ligand 20 MC. The AhR-ligand dose dependent expression of the reporter was analyzed. In addition, similarly, a axillary bud was cultured for 2 weeks on an MS medium containing 25 μM 20-MC, and tissue-specific expression of a reporter in a plant was analyzed using a GUS staining method. That is, each tissue of a plant was impregnation-treated in a X-Gluc solution (0.1M sodium phosphate buffer, pH 7.0, 1.9 mM X-glucuronide, 0.5 mM K3Fe(CN)6, 0.5 mM K4Fe(CN)6, 0.3% (v/v) Triton X-100, 20% methanol) under reduced pressure, then incubated at 37° C. overnight, and 70% ethanol was added to stop the reaction. Thereafter, decoloration was performed in 70% ethanol, and the tissue was observed under an optical microscope or stereomicroscope.

AhR = conditions: cultured mammal cell; cited from earlier work
[2] = test system: LexA operator promoter-LacZ reporter unit in yeast L40 strain expressing XDV/XVD (mouse AhR-ligand binding control region); test: Yeast reporter assay system for XDV/XVD (LacZ activity); type: cell-based; conditions: yeast introduced with XDV/XVD, FIG. 6
Procedure: Yeasts introduced with various XDV/XVD expression plasmids were pre-cultured overnight in a liquid selective medium containing glucose as a carbon source, cultured for 14 to 16 hours in a liquid selective medium containing an AhR-ligand and galactose(as a carbon source), and the LacZ activity was measured.
By using a reporter gene assay system using a yeast expression system, assessment of performance of XDV/XVD was performed.
An yeast L40 strain having a reporter unit composed of a LexA operator promoter and a β-galactosidase gene (LacZ) in a chromosome [(MATa his3Δ200 trp1-901 leu2-3112 ade2 LYS2:: (41exAop-HIS3)URA3:: (81exAop-lacZ)GAL4) (Invitrogen, Netherland)) was transformed, and assessed by the LacZ activity dependent on the expression of XDV/XVD and ligand treatment as an index. […]
Various AhR-ligands (dioxins) were dissolved in DMSO (a final concentration of DMSO in a medium was adjusted at 0.1%). […] An absorbance at 415 nm of the supernatant was measured. A LacZ unit was calculated by the following calculation equation:
LacZ unit=absorbance at 415 nm/[absorbance at 600 nm of a diluted cultured yeast solution in which 200 μL of cultured yeast solution was diluted up to 1 mL]×reaction time (min)]×1000

SMILES	GUS staining of tissues (X-Gluc) ([1]; 2 weeks on MS medium containing 25 μM 20-MC, leaf and stem, FIG. 12 B)	20-MC concentration in a medium that can be detected by the transformed plant ([1]; axillary bud cultured 2 weeks on MS medium, 8 grades of 20-MC) [nM]	GUS activity dependent on AhR-ligand treatment, line 4 and line 21 of AhRV-GUS plant ([1]; line 4 and line 21 of the AhRV-GUS plant, stronger than GUS under CaMV 35S-P, FIG. 9)	enhancement of the GUS activity in the presence of AhR-ligands [1]	TCDD concentration detectable (AhR) [ppb]	LacZ activity on AhR-ligand treatment, in words [2]
Cc1ccc2cc3c(ccc4ccccc43)c3c2c1CC3 [20-MC, 20-methylcholanthrene]	remarkable expression of a GUS reporter gene	5	very strong enhancement of the GUS activity	remarkable		
Clc1cc2c(cc1Cl)Oc1cc(Cl)c(Cl)cc1O2 [TCDD, 2,3,7,8-TCDD]					0.01	
O=c1cc(-c2ccccc2)oc2ccc3ccccc3c12 [β-NF, β-naphthoflovone]				remarkable		enhancement of the LacZ activity was recognized
